Laboratory results: ChEMBL document CHEMBL1681643 (Bioorg Med Chem Lett, 2011)
Converted amounts (≈) assume the structure as drawn. The source made the active and inactive calls. The calls are words filed in the database; no cut-off is given here. Non-standard residues stand in square brackets, D forms with d. Residues, ends and D or L forms follow the SMILES beside them. *: point of attachment. S(CH2)2OCO2(CPT-20-yl) = CC[C@@]1(OC(=O)OCCS*)C(=O)OCc2c1cc1n(c2=O)Cc2cc3ccccc3nc2-1; Ahx = NCCCCCC(=O)O

How the values were obtained:
CHO [1] = assay: Drug uptake in NK1R overexpressing CHO cells at 10 uM after 30 mins by confocal microscopy; format: ADME, cell-based, Cricetulus griseus; details: chinese hamster, 0.5 h
U-87MG ATCC = assay: Anticancer activity against NK1R overexpressing human U87MG cells assessed as cell viability after 72 hrs by MTT assay; format: functional, cell-based
CHO [2] = assay: Drug uptake in CHO cells at 10 uM after 30 mins by confocal microscopy; format: ADME, cell-based, Cricetulus griseus; details: chinese hamster, 0.5 h
[3] = Solubility of the compound in phosphate buffer at pH 7.4; format: physicochemical
MCF7 = assay: Anticancer activity against NK1R overexpressing human MCF7 cells assessed as cell viability after 72 hrs by MTT assay; format: functional, cell-based
CHO [4] = assay: Cytotoxicity against NK1R overexpressing CHO cells assessed as cell viability after 72 hrs by MTT assay; format: functional, cell-based; details: Cricetulus griseus
MDA-MB-231 = assay: Anticancer activity against NK1R overexpressing human MDA-MB-231 cells assessed as cell viability after 72 hrs by MTT assay; format: functional, cell-based
U-251 = assay: Anticancer activity against NK1R overexpressing human U251MG cells assessed as cell viability after 72 hrs by MTT assay; format: functional, cell-based
CHO [5] = assay: Cytotoxicity against CHO cells assessed as cell proliferation after 72 hrs by MTT assay; format: cell-based, Cricetulus griseus; details: chinese hamster
CHO [6] = assay: Cytotoxicity against CHO cells assessed as cell viability after 72 hrs by MTT assay; format: cell-based, Cricetulus griseus; details: chinese hamster

Compound | Drug uptake (CHO [1]) | Activity (U-87MG ATCC) | Drug uptake (CHO [2]) | solubility [3] [µg/mL] | Activity (MCF7) | Activity (CHO [4]) | Activity (MDA-MB-231) | Activity (U-251) | Activity (CHO [5]) | Activity (CHO [6])
CC[C@@]1(OC(=O)OCCSSC[C@H](N)C(=O)NCCCCCC(=O)N[C@@H](CCC(N)=O)C(=O)N[C@@H](Cc2ccccc2)C(=O)N[C@@H](Cc2ccccc2)C(=O)NCC(=O)N[C@@H](CC(C)C)C(=O)N[C@@H](CCSC)C(N)=O)C(=O)OCc2c1cc1n(c2=O)Cc2cc3ccccc3nc2-1 (H-C(S(CH2)2OCO2(CPT-20-yl))[Ahx]QFFGLM-NH2) | Active | Dose-dependent effect | Active | 8.4 (≈ 5.97 µM) | Dose-dependent effect | Active | Dose-dependent effect | Dose-dependent effect | Not Active | –
CC[C@@]1(OC(=O)OCCSSC[C@H](N)C(=O)N[C@@H](CCCNC(=N)N)C(=O)N2CCC[C@H]2C(=O)N[C@@H](CCCCN)C(=O)N2CCC[C@H]2C(=O)N[C@@H](CCC(N)=O)C(=O)N[C@@H](CCC(N)=O)C(=O)N[C@@H](Cc2ccccc2)C(=O)N[C@@H](Cc2ccccc2)C(=O)NCC(=O)N[C@@H](CC(C)C)C(=O)N[C@@H](CCSC)C(N)=O)C(=O)OCc2c1cc1n(c2=O)Cc2cc3ccccc3nc2-1 | Active | Dose-dependent effect | Active | 103 (≈ 54.2 µM) | Dose-dependent effect | Active | Dose-dependent effect | Dose-dependent effect | Not Active | –
CC[C@@]1(O)C(=O)OCc2c1cc1n(c2=O)Cc2cc3ccccc3nc2-1 [CAMPTOTHECIN] | Active | Dose-dependent effect | Active | 2.7 (≈ 7.75 µM) | Dose-dependent effect | – | Dose-dependent effect | Dose-dependent effect | – | Toxic
CSCC[C@H](NC(=O)[C@H](CC(C)C)NC(=O)CNC(=O)[C@H](Cc1ccccc1)NC(=O)[C@H](Cc1ccccc1)NC(=O)[C@H](CCC(N)=O)NC(=O)CCCCCNC(=O)[C@@H](N)CS)C(N)=O (H-C[Ahx]QFFGLM-NH2) | – | inactive | – | – | inactive | – | inactive | inactive | – | –
